This passage reports pKaH results from patent US20240425630A1, “POLYMER DISPERSION COMPOSITION” (Dow Global Technologies LLC, priority 2021, published 2024).

Like-named read-outs stand apart in the source and are kept apart here.

The conditions of series [1]: cited from earlier work.
Series [2] is described as follows: Surfactant pKaH by acid-base titration. The text has this: Surfactant pKaH values were either collected from literature sources or measured according to the method described herein. The surfactant (1 g) was mixed with deionized water (60 g). Next, preparation steps were taken to convert all of the surfactants to their respective salt forms. Surfactants which are already in fully neutralized salt form (e.g., Geropon CG 3S, Geropon LG 3S, and Aminosyl SLG) were titrated “as is” (i.e., as received from the supplier). Surfactants in acid form were mixed with enough aqueous 0.5 M KOH (potassium hydroxide) to increase the solution pH to a pH of 10. Sodium lauroyl lactylate (Capmul S12L, 1 g) was mixed with 1.4 g TERGITOL™15-S-40 (70%), followed by enough aqueous 0.5 M KOH (potassium hydroxide) to increase the solution pH to a pH of 10. After the respective preparation steps above, the surfactant solutions were titrated with 0.5 M HCl to pH 2 while recording the pH and the amount of 0.5 M HCl added using a titrator, Mettler Toledo T70.

[3] abbreviates: literature data (footnotes of Table II).

As for sodium dodecylbenzenesulfonate, the pKaH entry in series [1] (stated in the discussion, no source given) is “less than 2.6”.

Take `CCCCCCCC(=O)O` [n-octanoic acid]: the pKaH in series [1] (setting [3]) is given as 6.3-6.5.

`CCCCCCCCCCCC(=O)OC(C)C(=O)OC(C)C(=O)[O-].[Na+]` (stereo not shown) [Sodium lauroyl lactylate]: the pKaH in series [2] (titrated with 0.5 M HCl, pH at mid-point to the equivalence point) was found to be 5.25.

With `CCCCCCCC/C=C\CCCCCCCC(=O)O` [Oleic acid (C18:1 cis-9), Oleic acid], the pKaH in series [1] (setting [3]) is reported as 9.85.

In the case of `CCCCCCCCCCCC(=O)O` [Lauric acid (C12), Lauric acid], the pKaH in series [1] (setting [3]) is 7.5.

For `CCCCCCCCCCCCCCCC(=O)O` [Palmitic acid (C16), Palmitic acid], in series [1] (setting [3]), the pKaH is recorded as 8.6-8.8.

Consider `CCCCCCCCCC(=O)O` [Capric acid (C10), Capric acid], for which the pKaH in series [1] (setting [3]) is given as 7.1-7.3.

For `CCCCCCCCCCCCCCCCCC(=O)O` [Stearic acid (C18), Stearic acid], in series [1] (setting [3]), the pKaH was 10.15.

Turning to `CCCCCCCCCCCC(=O)N(C)CC(=O)O` [N-Lauroyl sarcosine], the pKaH in series [2] amounted to 5.3.

For the compound `CCCCCCCCCCCCCC(=O)O` [Myristic acid (C14), Myristic acid], the pKaH in series [1] (setting [3]) was 8.1-8.2.
